Assay results published in patent US20210040089A1, “KRAS MUTANT PROTEIN INHIBITORS” (Jacobio Pharmaceuticals Co., Ltd., priority 2019, published 2021).

Key:
[1] = test system: Phospho-ERK1/2(THR202/TYR204) in NCI-H358 cells express KRAS G12C; test: Phospho-ERK1/2(THR202/TYR204) HTRF assay; type: cell-based; details: Homo sapiens; NCI-H358, 2 hours incubation; read-out: p-ERK inhibition in NCI-H358 IC50
Protocol: NCI-H358 cells express KRAS G12C were cultured in RPMI 1640 medium (Gibco) containing 10% fetal bovine serum (Gibco). Cells in culture medium were plated in 96-well plates at a concentration of 40,000 cells/well and allowed to attach overnight. The next day, culture medium was removed and added compounds diluted in assay medium (RPMI 1640, 0.1% EFBS). After 2 hours incubation in a 37° C./5% CO2 cell incubator, the assay medium was removed, then 50 μL of 1× supplemented lysis buffer (Cisbio) was added and the plates were incubated at 25° C. for 45 min with shaking. 10 μL of cell lysates from the 96-well plates were transferred to a 384-well plate (Greiner) containing 2.5 µL/well HTRF® pre-mixed antibodies (Cisbio 64AERPEH).
Incubate 4 hours at 25° C. and then read HTRF signals on Tecan Spark multimode microplate reader. The data were analyzed using a 4-parameter logistic model to calculate IC50 values.

KRAS G12C = target: T1, KRAS G12C (Homo sapiens, UniProt P01116, G12C); test: SOS1 catalyzed nucleotide exchange assay (TR-FRET); type: biochemical; details: GDP-loaded HIS-KRAS(G12C), 1 hour pre-incubation with compound
T1 construct: HIS-KRAS (G12C, aa 2-185, Sino biological); purchased Sino biological
Protocol: 1. SOS1 Catalyzed Nucleotide Exchange Assay
HIS-KRAS (G12C, aa 2-185, Sino biological) was diluted to […] EDTA buffer (20 mM HEPES, pH 7.4, 50 mM NaCl, 10 mM EDA, 0.01% (v/v) Tween-20) and incubated for 30 min at 25° C. The EDTA pretreated HIS-KRAS(G12C) was diluted to 12 nM in assay buffer (25 mM HEPES, pH 7.4, 120 mM NaCl, 5 mM MgCl2, 1 mM DTI, 0.01% (v/v) Tween 20, 0.1% (w/v) BSA) containing 120 nM GDP(Sigma) and Mab Anti 6HIS-Tb cryptate Gold(Cisbio) and incubated for 1 hour at 25° C. to prepare GDP-loaded HIS-KRAS(G12C). The GDP-loaded HIS-KRAS(G12C) was pre-incubation with diluted compounds in a 384-well plate (Greiner) for 1 hour, then purified SOS 1ExD (Flag tag, aa 564-1049) and BODIPY™FL GTP (Invitrogen) were added to the assay wells (Final concentration: 3 nM HIS-KRAS(G12C), 2 μM SOS1 ExD, 80 nM BODIPY™FL GTP, 21 ng/mL MAb Anti 6HS-Tb cryptate Gold) and incubated for 4 hours at 25° C. TR-FRET signals were then read on Tecan Spark multimode microplate reader. The parameters were F486: Excitation 340 (35) nm, Emission 486 (10) nm, Lag time 100 μs, Integration time […]; F515: Excitation 340 (35) nm, Emission 515 (10) nm, Lag time […], Integration time 200 s. TR-FRET ratios for each individual wells were calculated by equation: TR-FRET ratio=(Signal F515/Signal F486)*10000. Then the data were analyzed using a 4-parameter logistic model to calculate IC50 values.

[2] = test system: NCI-H358 cells express KRAS G12C; test: Cell growth inhibition assay (CCK-8); type: cell-based; details: Homo sapiens, 144 h; NCI-H358, 6 days incubation
Protocol: 3. Cell Growth inhibition assay
NCI-H358 cells express KRAS G12C were cultured in RPMI 1640 medium (Gibco) containing 10% fetal bovine serum (Gibco). Cells in culture medium were plated in 96-well plates at a concentration of 3000 cells/well ([…]) and allowed to attach overnight. The next day, compounds were diluted in culture medium and added to the plates. After 6 days incubation in a 37° C./5% CO2 cell incubator, the medium was removed, then 100 μL of 1×CCK-8 (MCE) in culture medium was added in each well. The plates were incubated 1.5-2 hours in a 37° C./5% CO2 cell incubator. OD450 signals were read on Tecan Spark multimode microplate reader and analyzed using a 4-parameter logistic model to calculate IC50 values.

T1 sequence (P01116 2-185 isoform P01116-2 G12C): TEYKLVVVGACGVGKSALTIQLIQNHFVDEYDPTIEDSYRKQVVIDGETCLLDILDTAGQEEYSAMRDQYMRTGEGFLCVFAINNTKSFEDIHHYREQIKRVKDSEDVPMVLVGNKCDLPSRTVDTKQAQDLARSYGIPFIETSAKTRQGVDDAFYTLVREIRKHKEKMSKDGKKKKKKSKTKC

SMILES	IC50 [1] [nM]	IC50 (KRAS G12C) [nM]	IC50 [2] [nM]
C=CC(=O)N1CCN(c2nc(O[C@H]3CC[C@H](N(C)C)CC3)nc3c2CCN(c2cccc4ccccc24)C3)CC1CC#N (some centres unmarked) [Compound 1, 2-(1-acryloyl-4-(2-(((1r,4r)-4-(dimethylamino)cyclohexyl)oxy)-7-(naphthalen-1-yl)-5,6,7,8-tetrahydropyrido[3,4-d]pyrimidin-4-yl)piperazin-2-yl)acetonitrile]	3200	–	–
C=CC(=O)N1CCN(c2nc(OCC3(CN(C)C)CC3)nc3c2CCN(c2cccc4ccn(C)c(=O)c24)C3)CC1CC#N (centres unmarked) [Compound 2, 2-(1-acryloyl-4-(2-((1-((dimethylamino)methyl)cyclopropyl)methoxy)-7-(2-methyl-1-oxo-1,2-dihydroisoquinolin-8-yl)-5,6,7,8-tetrahydropyrido[3,4-d]pyrimidin-4-yl)piperazin-2-yl)acetonitrile]	–	> 500	–
C=CC(=O)N1CCN(c2nc(OCC3(N(C)C)CCC3)nc3c2CCN(c2cccc4ccccc24)C3)CC1CC#N (centres unmarked) [Compound 9, 2-(1-acryloyl-4-(2-((1-(dimethylamino)cyclobutyl)methoxy)-7-(naphthalen-1-yl)-5,6,7,8-tetrahydropyrido[3,4-d]pyrimidin-4-yl)piperazin-2-yl)acetonitrile]	1150	–	888
C=CC(=O)N1CCN(c2nc(OC3CCCCC3N(C)C)nc3c2CCN(c2cccc4ccccc24)C3)CC1CC#N (centres unmarked) [Compound 11, 2-(1-acryloyl-4-(2-((2-(dimethylamino)cyclohexyl)oxy)-7-(naphthalen-1-yl)-5,6,7,8-tetrahydropyrido[3,4-d]pyrimidin-4-yl)piperazin-2-yl)acetonitrile]	9860	–	–
C=CC(=O)N1CCN(c2nc(OC3CCC(N(C)C)C3)nc3c2CCN(c2cccc4ccccc24)C3)CC1CC#N (centres unmarked) [Compound 13, 2-(1-acryloyl-4-(2-((3-(dimethylamino)cyclopentyl)oxy)-7-(naphthalen-1-yl)-5,6,7,8-tetrahydropyrido[3,4-d]pyrimidin-4-yl)piperazin-2-yl)acetonitrile]	1210	684	–
C=CC(=O)N1CCN(c2nc(OC3CCCC3N3CCN(C)CC3)nc3c2CCN(c2cccc4ccccc24)C3)CC1CC#N (centres unmarked) [Compound 16, 2-(1-acryloyl-4-(2-((2-(4-methylpiperazin-1-yl)cyclopentyl)oxy)-7-(naphthalen-1-yl)-5,6,7,8-tetrahydropyrido[3,4-d]pyrimidin-4-yl)piperazin-2-yl)acetonitrile]	7060	–	–
C=CC(=O)N1CCN(c2nc(OCC3CC3CN(C)C)nc3c2CCN(c2cccc4ccccc24)C3)CC1CC#N (centres unmarked) [Compound 19, 2-(1-acryloyl-4-(2-((2-((dimethylamino)methyl)cyclopropyl)methoxy)-7-(naphthalen-1-yl)-5,6,7,8-tetrahydropyrido[3,4-d]pyrimidin-4-yl)piperazin-2-yl)acetonitrile]	748	372	–
C=CC(=O)N1CCN(c2nc(OCCC3CCCC3N(C)C)nc3c2CCN(c2cccc4ccccc24)C3)CC1CC#N (centres unmarked) [Compound 21, 2-(1-acryloyl-4-(2-(2-(2-(dimethylamino)cyclopentyl)ethoxy)-7-(naphthalen-1-yl)-5,6,7,8-tetrahydropyrido[3,4-d]pyrimidin-4-yl)piperazin-2-yl)acetonitrile]	> 1000	–	–
C=CC(=O)N1CCN(c2nc(OCC3CCC(N(C)C)C3)nc3c2CCN(c2cccc(F)c2Cl)C3)CC1CC#N (centres unmarked) [Compound 29, 2-(1-acryloyl-4-(7-(2-chloro-3-fluorophenyl)-2-((3-(dimethylamino)cyclopentyl)methoxy)-5,6,7,8-tetrahydropyrido[3,4-d]pyrimidin-4-yl)piperazin-2-yl)acetonitrile]	> 1000	–	–
C=CC(=O)N1CCN(c2nc(OCC3(N4CCCC4)CC3)nc3c2CCN(c2cccc4ccccc24)C3)CC1CC#N (centres unmarked) [Compound 32, 2-(1-acryloyl-4-(7-(naphthalen-1-yl)-2-((1-(pyrrolidin-1-yl)cyclopropyl)methoxy)-5,6,7,8-tetrahydropyrido[3,4-d]pyrimidin-4-yl)piperazin-2-yl)acetonitrile]	–	–	696
C=CC(=O)N1CCN(c2nc(OCC3CCC(N4CCCC4)C3)nc3c2CCN(c2cccc4ccccc24)C3)CC1CC#N (centres unmarked) [Compound 33, 2-(1-acryloyl-4-(7-(26aphthalene-1-yl)-2-((3-(pyrrolidin-1-yl)cyclopentyl)methoxy)-5,6,7,8-tetrahydropyrido[3,4-d]pyrimidin-4-yl)piperazin-2-yl)acetonitrile]	302	–	652
C=CC(=O)N1CCN(c2nc(OCC3(CN(C)C)CC3)nc3c2CCN(c2cccc4scnc24)C3)CC1CC#N (centres unmarked) [Compound 52, 2-(1-acryloyl-4-(7-(benzo[d]thiazol-4-yl)-2-((1-((dimethylamino)methyl)cyclopropyl)methoxy)-5,6,7,8-tetrahydropyrido[3,4-d]pyrimidin-4-yl)piperazin-2-yl)acetonitrile]	> 500	485	–
C=CC(=O)N1CCN(c2nc(OCC3(CN(C)C)CC3)nc3c2CCN(c2cccc4c2OCC4)C3)CC1CC#N (centres unmarked) [Compound 53, 2-(1-acryloyl-4-(7-(2,3-dihydrobenzofuran-7-yl)-2-((1-((dimethylamino)methyl)cyclopropyl)methoxy)-5,6,7,8-tetrahydropyrido[3,4-d]pyrimidin-4-yl)piperazin-2-yl)acetonitrile]	> 500	174	–
C=CC(=O)N1CCN(c2nc(OCC3(CN(C)C)CC3)nc3c2CCN(c2c(N)cccc2F)C3)CC1CC#N (centres unmarked) [Compound 55, 2-(1-acryloyl-4-(7-(2-amino-6-fluorophenyl)-2-((1-((dimethylamino)methyl)cyclopropyl)methoxy)-5,6,7,8-tetrahydropyrido[3,4-d]pyrimidin-4-yl)piperazin-2-yl)acetonitrile]	–	> 500	–
C=CC(=O)N1CCN(c2nc(O[C@H]3CCCC[C@@H]3N(C)C)nc3c2CCN(c2cccc4ccccc24)C3)CC1CC#N (stereo partly drawn) [Compound 60, 2-(1-acryloyl-4-(2-(((1S,2S)-2-(dimethylamino)cyclohexyl)oxy)-7-(naphthalen-1-yl)-5,6,7,8-tetrahydropyrido[3,4-d]pyrimidin-4-yl)piperazin-2-yl)acetonitrile]	7120	–	–
C=C(F)C(=O)N1CCN(c2nc(OCC3(CN(C)C)CC3)nc3c2CCN(c2cccc(C)c2C)C3)CC1CC#N (centres unmarked) [Compound 80, 2-(4-(2-((1-((dimethylamino)methyl)cyclopropyl)methoxy)-7-(2,3-dimethylphenyl)-5,6,7,8-tetrahydropyrido[3,4-d]pyrimidin-4-yl)-1-(2-fluoroacryloyl)piperazin-2-yl)acetonitrile]	> 500	285	–
C=C(F)C(=O)N1CCN(c2nc(OCC3(CN4CCC(F)(F)C4)CC3)nc3c2CCN(c2cccc4cccc(C)c24)C3)CC1CC#N (centres unmarked) [Compound 81, 2-(4-(2-((1-((3,3-difluoropyrrolidin-1-yl)methyl)cyclopropyl)methoxy)-7-(8-methylnaphthalen-1-yl)-5,6,7,8-tetrahydropyrido[3,4-d]pyrimidin-4-yl)-1-(2-fluoroacryloyl)piperazin-2-yl)acetonitrile]	–	> 500	–
C/C=C/C(=O)N1CCN(c2nc(OCC3(CN(C)C)CC3)nc3c2CCN(c2cccc(C)c2C)C3)CC1CC#N (centres unmarked) [Compound 82, (E)-2-(1-(but-2-enoyl)-4-(2-((1-((dimethylamino)methyl)cyclopropyl)methoxy)-7-(2,3-dimethylphenyl)-5,6,7,8-tetrahydropyrido[3,4-d]pyrimidin-4-yl)piperazin-2-yl)acetonitrile]	> 500	211	–
